From patent publication US8785488B2 (Exelixis Patent Company LLC, priority 2009, dated 2014)

Each compound was assayed against T1, human TGR5 (h-TGR5) (Homo sapiens, UniProt Q8TDU6) (assay: TGR5/CRE-Luciferiase Assay (HEK 293 hTGR5/CRE-Luc cells)). Conditions: h-TGR5 CRE-Luc EC50, Table 1; read-out: CRE-Luc (EC50).
T1 construct: expressed in transfected cells
T1 sequence (Q8TDU6 1-330): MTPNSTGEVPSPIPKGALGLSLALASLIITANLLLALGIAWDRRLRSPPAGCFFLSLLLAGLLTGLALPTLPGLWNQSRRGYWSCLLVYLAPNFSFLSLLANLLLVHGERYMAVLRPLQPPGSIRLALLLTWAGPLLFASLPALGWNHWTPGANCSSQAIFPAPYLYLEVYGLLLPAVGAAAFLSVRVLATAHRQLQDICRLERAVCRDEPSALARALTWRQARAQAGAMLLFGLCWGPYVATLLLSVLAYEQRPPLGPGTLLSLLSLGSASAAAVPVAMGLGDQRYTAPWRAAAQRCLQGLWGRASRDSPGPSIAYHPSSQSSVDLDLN
Type: cell-based
Outline: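 HEK293 cells stably carrying hTGR5 and a CRE-luciferase reporter were exposed to serially diluted compounds (diluted in DMEM with 5% DMSO) for 6 h. Cells were then lysed in luciferase buffer, luminescence was read, and EC50 values were derived from dose-response curves.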

SMILES	EC50 [µM]
CC(C)(c1ccc2c(c1)OCCO2)c1cnc(SCc2c(F)cccc2Cl)n1-c1ccc(F)cc1 [2-{[(2-chloro-6-fluorophenyl)methyl]thio}-5-[1-(2,3-dihydro-1,4-benzodioxin-6-yl)-1-methylethyl]-1-(4-fluorophenyl)-1H-imidazole]	< 0.1
CC(C)n1c(C(C)(C)c2ccc(Cl)c(Cl)c2)cnc1SCc1c(F)cccc1Cl [2-{[(2-chloro-6-fluorophenyl)methyl]thio}-5-[1-(3,4-dichlorophenyl)-1-methylethyl]-1-(1-methylethyl)-1H-imidazole]	1 to 10
CC(C)(c1ccc(Cl)c(Cl)c1)c1c(-c2ccccc2)nc(SCc2c(F)cccc2Cl)n1-c1ccc(F)cc1 [2-{[(2-chloro-6-fluorophenyl)methyl]thio}-5-[1-(3,4-dichlorophenyl)-1-methylethyl]-1-(4-fluorophenyl)-4-phenyl-1H-imidazole]	1 to 10
CC(C)(c1ccc(Cl)c(Cl)c1)c1cnc(SCc2c(F)cccc2Cl)n1-c1ccc(F)cc1C(F)(F)F [2-{[(2-chloro-6-fluorophenyl)methyl]thio}-5-[1-(3,4-dichlorophenyl)-1-methylethyl]-1-[4-fluoro-2-(trifluoromethyl)phenyl]-1H-imidazole]	1 to 10
CC(C)(c1ccc(F)c(F)c1)c1cnc(SCc2c(F)cccc2Cl)n1-c1ccc(F)cc1 [2-{[(2-chloro-6-fluorophenyl)methyl]thio}-5-[1-(3,4-difluorophenyl)-1-methylethyl]-1-(4-fluorophenyl)-1H-imidazole]	< 0.1
CC(C)(c1ccc(Cl)cc1)c1cnc(SCc2c(F)cccc2Cl)n1-c1ccc(F)cc1 [2-{[(2-chloro-6-fluorophenyl)methyl]thio}-5-[1-(4-chlorophenyl)-1-methylethyl]-1-(4-fluorophenyl)-1H-imidazole]	0.1 to 1
Fc1ccc(-n2c(C(F)(F)c3ccc(Cl)c(Cl)c3)cnc2SCc2c(F)cccc2Cl)cc1 [2-{[(2-chloro-6-fluorophenyl)methyl]thio}-5-[(3,4-dichlorophenyl)(difluoro)methyl]-1-(4-fluorophenyl)-1H-imidazole]	1 to 10
CC(C)(c1ccc(Cl)c(Cl)c1)c1cnc(COc2c(F)cccc2Cl)n1-c1ccc(F)cc1 [2-{[(2-chloro-6-fluorophenyl)oxy]methyl}-5-[1-(3,4-dichlorophenyl)-1-methylethyl]-1-(4-fluorophenyl)-1H-imidazole]	0.1 to 1
CC(C)(c1ccc(Cl)c(Cl)c1)c1cnc(S(=O)(=O)Cc2ccc(F)c(Cl)c2)n1-c1ccc(F)cc1 [2-{[(3-chloro-4-fluorophenyl)methyl]sulfonyl}-5-[1-(3,4-dichlorophenyl)-1-methylethyl]-1-(4-fluorophenyl)-1H-imidazole]	0.1 to 1
CC(C)(c1ccc(Cl)c(Cl)c1)c1cnc(C(O)CCc2ccc(Cl)cc2Cl)n1-c1ccc(F)cc1 (centres unmarked) [3-(2,4-dichlorophenyl)-1-{5-[1-(3,4-dichlorophenyl)-1-methylethyl]-1-(4-fluorophenyl)-1H-imidazol-2-yl}propan-1-ol]	1 to 10
CC(C)(c1ccc(Cl)c(Cl)c1)c1cnc(C(=O)CCc2ccc(Cl)cc2Cl)n1-c1ccc(F)cc1 [3-(2,4-dichlorophenyl)-1-{5-[1-(3,4-dichlorophenyl)-1-methylethyl]-1-(4-fluorophenyl)-1H-imidazol-2-yl}propan-1-one]	1 to 10
CC(C)(c1ccc(Cl)c(OCCCO)c1)c1cnc(SCc2c(F)cccc2Cl)n1-c1ccc(F)cc1 [3-[(2-chloro-5-{1-[2-{[(2-chloro-6-fluorophenyl)methyl]thio}-1-(4-fluorophenyl)-1H-imidazol-5-yl]-1-methylethyl}phenyl)oxy]propan-1-ol]	0.1 to 1
CC(C)(c1ccc(Cl)c(Cl)c1)c1cnc(SCC2CCCN(S(C)(=O)=O)C2)n1-c1ccc(F)cc1 (centres unmarked) [3-[({5-[1-(3,4-dichlorophenyl)-1-methylethyl]-1-(4-fluorophenyl)-1H-imidazol-2-yl}thio)methyl]-1-(methylsulfonyl)piperidine]	0.1 to 1
CC(C)(c1ccc(Cl)c(Cl)c1)c1cnc(COc2ncc(C(F)(F)F)cc2Cl)n1-c1ccc(F)cc1 [3-chloro-2-[({5-[1-(3,4-dichlorophenyl)-1-methylethyl]-1-(4-fluorophenyl)-1H-imidazol-2-yl}methyl)oxy]-5-(trifluoromethyl)pyridine]	1 to 10
CC(C)(c1ccc(Cl)c(Cl)c1)c1cnc(SCc2c(Cl)cccc2C(=O)O)n1-c1ccc(F)cc1 [3-chloro-2-[({5-[1-(3,4-dichlorophenyl)-1-methylethyl]-1-(4-fluorophenyl)-1H-imidazol-2-yl}thio)methyl]benzoic acid]	0.1 to 1
CC(C)(c1ccc(Cl)c(Cl)c1)c1cnc(CCc2c(F)cc(C(=O)O)cc2Cl)n1-c1ccc(F)cc1 [3-chloro-4-(2-{5-[1-(3,4-dichlorophenyl)-1-methylethyl]-1-(4-fluorophenyl)-1H-imidazol-2-yl}ethyl)-5-fluorobenzoic acid]	0.1 to 1
CC(C)(c1ccc(Cl)c(Cl)c1)c1cnc(CCc2ccc(S(=O)(=O)NC(=O)NN3CCCC3)cc2Cl)n1-c1ccc(F)cc1 [3-chloro-4-(2-{5-[1-(3,4-dichlorophenyl)-1-methylethyl]-1-(4-fluorophenyl)-1H-imidazol-2-yl}ethyl)-N-[(pyrrolidin-1-ylamino)carbonyl]benzenesulfonamide]	1 to 10
CC(C)(c1ccc(S(C)(=O)=O)cc1)c1cnc(SCc2ccc(S(=O)(=O)NC(=O)NN3CCCC3)cc2Cl)n1-c1ccc(F)cc1 [3-chloro-4-({[1-(4-fluorophenyl)-5-{1-methyl-1-[4-(methylsulfonyl)phenyl]ethyl}-1H-imidazol-2-yl]thio}methyl)-N-[(pyrrolidin-1-ylamino)carbonyl]benzenesulfonamide]	1 to 10
CC(C)(c1ccc(S(C)(=O)=O)cc1)c1cnc(SCc2ccc(S(=O)(=O)NC(=O)NN3CCCC3)cc2Cl)n1-c1ccc(F)cn1 [3-chloro-4-({[1-(5-fluoropyridin-2-yl)-5-{1-methyl-1-[4-(methylsulfonyl)phenyl]ethyl}-1H-imidazol-2-yl]thio}methyl)-N-[(pyrrolidin-1-ylamino)carbonyl]benzenesulfonamide]	1 to 10
COc1c(Cl)cc(C(C)(C)c2cnc(SCc3ccc(S(N)(=O)=O)cc3Cl)n2-c2ccc(F)cc2)cc1Cl [3-chloro-4-({[5-{1-[3,5-dichloro-4-(methyloxy)phenyl]-1-methylethyl}-1-(4-fluorophenyl)-1H-imidazol-2-yl]thio}methyl)benzenesulfonamide]	< 0.1
CC(C)(c1ccc(F)cc1)c1cnc(SCc2ccc(S(=O)(=O)NC(=O)NN3CCCC3)cc2Cl)n1-c1ccc(F)c(F)c1 [3-chloro-4-[({1-(3,4-difluorophenyl)-5-[1-(4-fluorophenyl)-1-methylethyl]-1H-imidazol-2-yl}thio)methyl]-N-[(pyrrolidin-1-ylamino)carbonyl]benzenesulfonamide]	1 to 10
CCN(CC)CCOc1cc(-n2c(C(C)(C)c3ccc(Cl)c(Cl)c3)cnc2SCc2c(F)cc(C(=O)O)cc2Cl)ccc1F [3-chloro-4-[({5-[1-(3,4-dichlorophenyl)-1-methylethyl]-1-(3-{[2-(diethylamino)ethyl]oxy}-4-fluorophenyl)-1H-imidazol-2-yl}thio)methyl]-5-fluorobenzoic acid]	0.1 to 1
CC(C)(c1ccc(Cl)c(Cl)c1)c1cnc(COc2ccc(C(=O)O)cc2Cl)n1-c1ccc(F)cc1 [3-chloro-4-[({5-[1-(3,4-dichlorophenyl)-1-methylethyl]-1-(4-fluorophenyl)-1H-imidazol-2-yl}methyl)oxy]benzoic acid]	1 to 10
